Measurements taken from patent US12077503B2, “Substituted cyclic amides and their use as herbicides” (FMC CORPORATION, priority 2015, dated 2024).

Experiments:
Type in all cases: in vivo
[1] = system: barnyardgrass (Echinochloa crus-galli); experiment: Test A preemergence; conditions: Echinochloa crus-galli, pre-emergence, 240 h, Preemergence; for pest or weed control at 31 g/ha: 31 g ai/ha, 0 to 100 scale where 0 is no effect and 100 is complete control, read-out: Barnyardgrass plant response rating; for pest or weed control at 125 g/ha: 125 g ai/ha, visual injury rating after approximately 10 d, read-out: Barnyardgrass plant response rating (0 to 100 scale, 0 is no effect, 100 is complete control)
Outline: (§1)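 Compounds were formulated in a non-phytotoxic solvent mixture with surfactant and applied as a preemergence directed soil spray after seeding, or sprayed postemergence over plants 2 to 10 cm tall at the one- to two-leaf stage. Evaluation after about 10 d compared treated with untreated controls, using a scale from 0 (no effect) to 100 (complete control).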

[2] = system: giant foxtail (Setaria faberii); experiment: Test A preemergence; conditions: Setaria faberi, pre-emergence, 240 h, Preemergence; for pest or weed control at 31 g/ha: 31 g ai/ha, 0 to 100 scale where 0 is no effect and 100 is complete control, read-out: Foxtail, Giant plant response rating; for pest or weed control at 125 g/ha: 125 g ai/ha, visual injury rating after approximately 10 d, read-out: Foxtail, Giant plant response rating (0 to 100 scale, 0 is no effect, 100 is complete control)
Outline: as §1

Kochia (Kochia scoparia) [3] = experiment: Test A preemergence; conditions: Bassia scoparia, pre-emergence, 240 h, 0 to 100 scale where 0 is no effect and 100 is complete control, read-out: Kochia plant response rating; for pest or weed control at 31 g/ha: 31 g ai/ha, Preemergence; for pest or weed control at 125 g/ha: 125 g ai/ha, preemergence, approx. 10 d
Outline: as §1

[4] = system: pigweed (Amaranthus retroflexus); experiment: Test A preemergence; conditions: Amaranthus retroflexus, pre-emergence, 240 h, 0 to 100 scale where 0 is no effect and 100 is complete control, read-out: Pigweed plant response rating; for pest or weed control at 31 g/ha: 31 g ai/ha, Preemergence; for pest or weed control at 125 g/ha: 125 g ai/ha, preemergence, approx. 10 d
[5] = system: ryegrass, Italian (Italian ryegrass, Lolium multiflorum); experiment: Test A preemergence; conditions: Lolium multiflorum, pre-emergence, 240 h, 0 to 100 scale where 0 is no effect and 100 is complete control, read-out: Ryegrass, Italian plant response rating; for pest or weed control at 31 g/ha: 31 g ai/ha, Preemergence; for pest or weed control at 125 g/ha: 125 g ai/ha, preemergence, approx. 10 d
Outline: as §1

[6] = system: ragweed (common ragweed, Ambrosia elatior); experiment: Test A preemergence; conditions: Ambrosia artemisiifolia, pre-emergence, 240 h, 0 to 100 scale where 0 is no effect and 100 is complete control, read-out: Ragweed plant response rating; for pest or weed control at 31 g/ha: 31 g ai/ha, Preemergence; for pest or weed control at 125 g/ha: 125 g ai/ha, preemergence, approx. 10 d
Outline: as §1

[7] = system: barnyardgrass (Echinochloa crus-galli); experiment: Test A postemergence; conditions: Echinochloa crus-galli, post-emergence, 240 h; for pest or weed control at 125 g/ha: 125 g ai/ha, postemergence, visual injury on 0 to 100 scale (0 no effect, 100 complete control), approx. 10 d, read-out: Barnyardgrass plant response rating; for pest or weed control at 31 g/ha: Postemergence, 31 g ai/ha, visual injury after approx. 10 d, 0 to 100 scale, 0 no effect, 100 complete control, read-out: Plant response rating, Barnyardgrass
Outline: as §1

[8] = system: wheat (Triticum aestivum); experiment: Test A postemergence; conditions: Triticum aestivum, post-emergence, 240 h; for plant injury at 125 g/ha: 125 g ai/ha, postemergence, visual injury on 0 to 100 scale (0 no effect, 100 complete control), approx. 10 d, read-out: Wheat plant response rating; for plant injury at 31 g/ha: Postemergence, 31 g ai/ha, visual injury after approx. 10 d, 0 to 100 scale, 0 no effect, 100 complete control, read-out: Plant response rating, Wheat
Outline: as §1

[9] = system: Galium (catchweed bedstraw, Galium aparine); experiment: Test A postemergence; conditions: Galium, post-emergence, 240 h; for pest or weed control at 125 g/ha: 125 g ai/ha, postemergence, visual injury on 0 to 100 scale (0 no effect, 100 complete control), approx. 10 d, read-out: Galium plant response rating; for pest or weed control at 31 g/ha: Postemergence, 31 g ai/ha, visual injury after approx. 10 d, 0 to 100 scale, 0 no effect, 100 complete control, read-out: Plant response rating, Galium
Outline: as §1

[10] = system: giant foxtail (Setaria faberii); experiment: Test A postemergence; conditions: Setaria faberi, post-emergence, 240 h; for pest or weed control at 125 g/ha: 125 g ai/ha, postemergence, visual injury on 0 to 100 scale (0 no effect, 100 complete control), approx. 10 d, read-out: Foxtail, Giant plant response rating; for pest or weed control at 31 g/ha: Postemergence, 31 g ai/ha, visual injury after approx. 10 d, 0 to 100 scale, 0 no effect, 100 complete control, read-out: Plant response rating, Foxtail, Giant
Outline: as §1

Kochia (Kochia scoparia) [11] = experiment: Test A postemergence; conditions: Bassia scoparia, post-emergence, 240 h; for pest or weed control at 125 g/ha: 125 g ai/ha, postemergence, visual injury on 0 to 100 scale (0 no effect, 100 complete control), approx. 10 d, read-out: Kochia plant response rating; for pest or weed control at 31 g/ha: Postemergence, 31 g ai/ha, visual injury after approx. 10 d, 0 to 100 scale, 0 no effect, 100 complete control, read-out: Plant response rating, Kochia
Outline: as §1

[12] = system: pigweed (Amaranthus retroflexus); experiment: Test A postemergence; conditions: Amaranthus retroflexus, post-emergence, 240 h; for pest or weed control at 125 g/ha: 125 g ai/ha, postemergence, visual injury on 0 to 100 scale (0 no effect, 100 complete control), approx. 10 d, read-out: Pigweed plant response rating; for pest or weed control at 31 g/ha: Postemergence, 31 g ai/ha, visual injury after approx. 10 d, 0 to 100 scale, 0 no effect, 100 complete control, read-out: Plant response rating, Pigweed
Outline: as §1

[13] = system: ryegrass, Italian (Italian ryegrass, Lolium multiflorum); experiment: Test A postemergence; conditions: Lolium multiflorum, post-emergence, 240 h; for pest or weed control at 125 g/ha: 125 g ai/ha, postemergence, visual injury on 0 to 100 scale (0 no effect, 100 complete control), approx. 10 d, read-out: Ryegrass, Italian plant response rating; for pest or weed control at 31 g/ha: Postemergence, 31 g ai/ha, visual injury after approx. 10 d, 0 to 100 scale, 0 no effect, 100 complete control, read-out: Plant response rating, Ryegrass, Italian
Outline: as §1

corn (Zea mays) = experiment: Test A postemergence; conditions: Zea mays, post-emergence, 240 h; for plant injury at 125 g/ha: 125 g ai/ha, postemergence, visual injury on 0 to 100 scale (0 no effect, 100 complete control), approx. 10 d, read-out: Corn plant response rating; for Corn plant response rating (crop injury, 0 = no effect, 100 = complete kill) at 31 g/ha: Postemergence, 31 g ai/ha, visual injury after approx. 10 d, 0 to 100 scale, 100 complete control
Outline: as §1

[14] = system: blackgrass (Alopecurus myosuroides); experiment: Test A postemergence; conditions: Alopecurus myosuroides, post-emergence, 240 h; for pest or weed control at 125 g/ha: 125 g ai/ha, postemergence, visual injury on 0 to 100 scale (0 no effect, 100 complete control), approx. 10 d, read-out: Blackgrass plant response rating; for pest or weed control at 31 g/ha: Postemergence, 31 g ai/ha, visual injury after approx. 10 d, 0 to 100 scale, 0 no effect, 100 complete control, read-out: Plant response rating, Blackgrass
Outline: as §1

[15] = system: ragweed (common ragweed, Ambrosia elatior); experiment: Test A postemergence; conditions: Ambrosia artemisiifolia, post-emergence, 240 h; for pest or weed control at 125 g/ha: 125 g ai/ha, postemergence, visual injury on 0 to 100 scale (0 no effect, 100 complete control), approx. 10 d, read-out: Ragweed plant response rating; for pest or weed control at 31 g/ha: Postemergence, 31 g ai/ha, visual injury after approx. 10 d, 0 to 100 scale, 0 no effect, 100 complete control, read-out: Plant response rating, Ragweed
Outline: as §1

[16] = system: barnyardgrass (Echinochloa crus-galli); experiment: Test B flooded paddy test; conditions: Echinochloa crus-galli, 250 g ai/ha, Flood; 0 to 100 scale where 0 is no effect and 100 is complete control; read-out: Barnyardgrass plant response rating
Outline: (§2)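 Greenhouse paddy pots with 2-leaf stage plants received compound by direct addition to floodwater 3 cm deep, kept at that level. Scored visually at 13–15 d versus controls (0 no effect; 100 complete control).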

rice (Oryra sativa) = experiment: Test B flooded paddy test; conditions: Oryza sativa, 250 g ai/ha, Flood; 0 to 100 scale where 0 is no effect and 100 is complete control; read-out: Rice plant response rating
Outline: as §2

[17] = system: sedge, umbrella (small-flower umbrella sedge, Cyperus difformis); experiment: Test B flooded paddy test; conditions: Cyperus difformis, 250 g ai/ha, Flood; 0 to 100 scale where 0 is no effect and 100 is complete control; read-out: Sedge, Umbrella plant response rating
Outline: as §2

[18] = system: ducksalad (Heteranthera limosa); experiment: Test B flooded paddy test; conditions: Heteranthera limosa, 250 g ai/ha, Flood; 0 to 100 scale where 0 is no effect and 100 is complete control; read-out: Ducksalad plant response rating
Outline: as §2

CN1C[C@H](c2ccc(C(F)(F)F)cc2)[C@@H](C(=O)Nc2cnccc2C(F)(F)F)C1=O [Compound 1065]
20%: plant injury at 125 g/ha [8] | plant injury at 125 g/ha (corn (Zea mays))
30%: pest or weed control at 31 g/ha [4] | pest or weed control at 125 g/ha [5]
70%: pest or weed control at 125 g/ha [1] | pest or weed control at 125 g/ha (Kochia (Kochia scoparia) [3]) | pest or weed control at 125 g/ha [4] | pest or weed control at 125 g/ha [9] | pest or weed control at 125 g/ha [10]
90%: pest or weed control at 31 g/ha [2]
50%: pest or weed control at 125 g/ha [14]
40%: pest or weed control at 125 g/ha [7] | pest or weed control at 31 g/ha [9] | pest or weed control at 125 g/ha (Kochia (Kochia scoparia) [11]) | pest or weed control at 125 g/ha [12] | pest or weed control at 125 g/ha [13]
0%: pest or weed control at 31 g/ha [1] | pest or weed control at 31 g/ha (Kochia (Kochia scoparia) [3]) | pest or weed control at 31 g/ha [5] | pest or weed control at 31 g/ha [6] | pest or weed control at 125 g/ha [6] | pest or weed control at 31 g/ha [7] | plant injury at 31 g/ha [8] | pest or weed control at 31 g/ha [10] | pest or weed control at 31 g/ha (Kochia (Kochia scoparia) [11]) | pest or weed control at 31 g/ha [12] | pest or weed control at 31 g/ha [13] | Corn plant response rating (crop injury, 0 = no effect, 100 = complete kill) at 31 g/ha (corn (Zea mays)) | pest or weed control at 31 g/ha [14] | pest or weed control at 125 g/ha [15] | pest or weed control at 31 g/ha [15] | pest or weed control at 250 g/ha [16] | pest or weed control at 250 g/ha (rice (Oryra sativa)) | pest or weed control at 250 g/ha [17]
100%: pest or weed control at 125 g/ha [2] | pest or weed control at 250 g/ha [18]

CN1C[C@H](c2cccc(C(F)(F)F)c2)[C@@H](C(=O)Nc2cnccc2C(F)(F)F)C1=O [Compound 1066]
100%: pest or weed control at 125 g/ha [1] | pest or weed control at 31 g/ha [2] | pest or weed control at 125 g/ha [2]
70%: pest or weed control at 125 g/ha [7] | pest or weed control at 31 g/ha [10]
90%: pest or weed control at 125 g/ha [10]
20%: pest or weed control at 125 g/ha (Kochia (Kochia scoparia) [3]) | pest or weed control at 125 g/ha [4] | pest or weed control at 31 g/ha [5]
45%: pest or weed control at 250 g/ha [16]
50%: pest or weed control at 31 g/ha [1] | pest or weed control at 125 g/ha [5] | pest or weed control at 31 g/ha [7] | plant injury at 125 g/ha [8] | pest or weed control at 125 g/ha [9]
30%: pest or weed control at 125 g/ha [13] | pest or weed control at 31 g/ha [13]
0%: pest or weed control at 31 g/ha (Kochia (Kochia scoparia) [3]) | pest or weed control at 31 g/ha [4] | pest or weed control at 31 g/ha [6] | pest or weed control at 125 g/ha [6] | plant injury at 31 g/ha [8] | pest or weed control at 31 g/ha [9] | pest or weed control at 125 g/ha (Kochia (Kochia scoparia) [11]) | pest or weed control at 31 g/ha (Kochia (Kochia scoparia) [11]) | pest or weed control at 125 g/ha [12] | pest or weed control at 31 g/ha [12] | Corn plant response rating (crop injury, 0 = no effect, 100 = complete kill) at 31 g/ha (corn (Zea mays)) | pest or weed control at 31 g/ha [14] | pest or weed control at 125 g/ha [15] | pest or weed control at 31 g/ha [15] | pest or weed control at 250 g/ha (rice (Oryra sativa)) | pest or weed control at 250 g/ha [17]
40%: plant injury at 125 g/ha (corn (Zea mays))
75%: pest or weed control at 250 g/ha [18]
60%: pest or weed control at 125 g/ha [14]
